What was measured:
Assay in all cases: Broth dilution method for determining MIC
Settings in all cases: pH adjusted to about 7, blend as ascorbic acid:ADBAC/DDAC
[1] = system: S. aureus; type: cell-based, Staphylococcus aureus
Procedure: (§1) The synergistic activities of different components in a composition (control, conventional comparative, or of the present technology) is determined by the method described by Kull et al. in […], Vol. 9, pages 538-541 (1961), which uses a synergy index to indicates whether synergy exists. A synergy index less than one (<1) indicates synergy; a synergy index of one (1) indicates additivity; a synergy index greater than one (>1) indicates antagonism.
(§2) When applied to Example 1 below, the synergy index of L-ascorbic acid and ADBAC/DDAC can be determined by the following equation:
(§3) Synergy Index=Qa/QA+Qb/QB, […]
(§4) The Minimum Inhibitory Concentration (MIC) of a chemical against a certain bacterium is determined according to the broth dilution method described in National Committee for Clinical Laboratory Standards entitled, “Methods for Dilution Antimicrobial Susceptibility Test for Bacteria that Grow Aerobically” document M7-A2, 2nd ed., 10:8, 1990. […]
(§5) In this example, standard MIC values of ascorbic acid, ADBAC/DDAC, and a 1:1 blend of ascorbic acid and ADBAC/DDAC were determined against E coli, S. aureus, and P. aeruginosa according to the broth dilution method introduced above. […] The synergy index of the 1:1 blend of ascorbic acid and ADBAC/DDAC against each of the biocidal targets was then calculated according to the method as described above.

[2] = system: E coli; type: cell-based, Escherichia coli
Procedure: as §1, §2, §3, §4, §5

[3] = system: P. aeruginosa; type: cell-based, Pseudomonas aeruginosa
Procedure: as §1, §2, §3, §4, §5

Measured: MIC

O=C1O[C@H]([C@@H](O)CO)C(O)=C1O [L-Ascorbic Acid]
>10,000 ppm, active: all assays above

— patent US20090176887A1, “Biocidal Compositions and Methods” (priority 2006, published 2009)
